Several values for one entry are separate records, joined by “and”; a condition that tells them apart may be missing. Equal entries are not always repeated.

The values that follow come from BindingDB's records for PubMed 2968449 (Squibb Institute For Medical Research, 1988).

This assay concerns the target T1, Thromboxane A2 receptor (Homo sapiens, UniProt P21731).
T1 sequence (P21731 whole entry): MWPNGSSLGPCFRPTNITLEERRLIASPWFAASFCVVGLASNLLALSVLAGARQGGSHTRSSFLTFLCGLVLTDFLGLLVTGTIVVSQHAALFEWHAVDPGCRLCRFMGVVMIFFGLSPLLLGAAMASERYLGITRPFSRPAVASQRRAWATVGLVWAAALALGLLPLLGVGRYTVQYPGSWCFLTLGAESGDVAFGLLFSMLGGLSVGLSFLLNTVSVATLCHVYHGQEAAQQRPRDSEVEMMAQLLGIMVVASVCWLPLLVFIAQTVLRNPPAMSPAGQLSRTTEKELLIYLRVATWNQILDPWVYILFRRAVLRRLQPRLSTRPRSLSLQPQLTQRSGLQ

For `CCCCCCC(=O)NCC(=O)NCC1C2CCC(O2)C1CC=CCCCC(=O)O` (centres undefined) [CAS_119571], the Ki is 49.6 nM and 28.3 nM.
The figure for `CCCCCC(O)C=CC1C2COC(C2)C1CC=CCCCC(=O)O` (centres undefined) [NSC_114865] is 7.1 nM and 4.4 nM; for `CC(c1ccccc1)C(O)C=CC1C2CCC(O2)C1CC=CCCCC(=O)O` (centres undefined) [NSC_3036123] it is 72.7 nM and 31.8 nM.
As to `CCCCC[C@H](O)/C=C/C1[C@@H](C/C=C\CCCC(=O)O)[C@H]2CO[C@@H]1C2` (some centres undefined) [U46619], the Ki was 18.7 nM and 3.6 nM.
